Experiments:
ORAI1/STIM1 = ORAI1/STIM1 (Homo sapiens, UniProt Q13586+Q96D31); test: Inhibition of Orai1/STIM1 (unknown origin) expressed in HEK293 cells assessed as reduction in Ca2+-release activated Ca2+ entry current by manual patch clamp based electrophysiological method; assay type: cell-based
[1] = Cmax in human at […] measured on day 14; assay type: ADME, organism-based; set-up: time 14 day; details: in vivo
[2] = AUClast in collagen-induced rheumatoid arthritis DBA/1J mouse model at 3 mg/kg, po administered twice daily for 15 days in presence of 0.75 mg/kg of methotrexate; assay type: ADME, organism-based; set-up: route oral, dose 3 mg/kg, time 15 day; details: in vivo
[3] = AUClast in collagen-induced rheumatoid arthritis DBA/1J mouse model at 3 mg/kg, po administered twice daily for 15 days; assay type: ADME, organism-based; set-up: route oral, dose 3 mg/kg, time 15 day; details: in vivo
[4] = AUC(0 to t) in rat at 60 mg/kg/day after 2 weeks; assay type: ADME, organism-based; set-up: dose 60 mg/kg/day, time 2 weeks; details: in vivo
[5] = Toxicity in rat assessed as minimum effective dose; details: in vivo
[6] = Tmax in collagen-induced rheumatoid arthritis DBA/1J mouse model at 3 mg/kg, po administered twice daily for 15 days in presence of 0.75 mg/kg of methotrexate; assay type: ADME, organism-based; details: in vivo, time 15 day

Sequence of ORAI1/STIM1 (Q96D31 whole entry): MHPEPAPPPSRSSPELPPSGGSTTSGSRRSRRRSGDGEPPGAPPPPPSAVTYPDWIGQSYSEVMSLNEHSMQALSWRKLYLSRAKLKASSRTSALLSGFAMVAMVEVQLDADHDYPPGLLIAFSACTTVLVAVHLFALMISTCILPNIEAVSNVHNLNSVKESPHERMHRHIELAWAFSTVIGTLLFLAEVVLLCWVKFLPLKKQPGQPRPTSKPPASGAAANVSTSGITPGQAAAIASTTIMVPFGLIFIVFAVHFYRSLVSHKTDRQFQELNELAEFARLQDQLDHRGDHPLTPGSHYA
Sequence of ORAI1/STIM1 (Q13586 whole entry): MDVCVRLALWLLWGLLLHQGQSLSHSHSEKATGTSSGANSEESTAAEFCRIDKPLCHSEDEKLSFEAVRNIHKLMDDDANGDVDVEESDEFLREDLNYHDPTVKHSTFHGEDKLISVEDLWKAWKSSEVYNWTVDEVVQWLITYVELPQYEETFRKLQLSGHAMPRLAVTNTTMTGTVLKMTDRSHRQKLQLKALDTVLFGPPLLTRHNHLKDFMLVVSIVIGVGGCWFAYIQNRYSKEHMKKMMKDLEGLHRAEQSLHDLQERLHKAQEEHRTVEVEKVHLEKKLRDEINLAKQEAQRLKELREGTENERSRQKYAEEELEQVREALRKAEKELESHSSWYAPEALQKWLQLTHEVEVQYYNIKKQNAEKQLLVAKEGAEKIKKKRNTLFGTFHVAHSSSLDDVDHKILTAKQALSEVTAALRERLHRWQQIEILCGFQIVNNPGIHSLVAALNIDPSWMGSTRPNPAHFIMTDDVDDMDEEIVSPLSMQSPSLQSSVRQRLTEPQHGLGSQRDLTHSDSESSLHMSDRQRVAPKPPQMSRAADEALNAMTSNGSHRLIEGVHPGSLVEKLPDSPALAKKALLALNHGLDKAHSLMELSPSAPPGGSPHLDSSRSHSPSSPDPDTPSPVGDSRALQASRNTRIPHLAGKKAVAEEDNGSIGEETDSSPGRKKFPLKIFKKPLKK

Cc1c(-c2ccc(NC(=O)c3c(F)cccc3F)cc2)cccc1-c1nn(C)c(=O)o1
IC50 (ORAI1/STIM1): 76 nM | Cmax [1]: 530 ng/mL | AUC(0-t) at 360 h [2]: 13 µM·h | AUC(0-t) at 360 h [3]: 12 µM·h | AUC(0-t) at 336 h [4]: 76700 ng·h/mL | MED [5]: 1 mg/kg | Tmax [6]: 2 h

Source: ChEMBL document CHEMBL4831556, “Discovery of a Novel Potent and Selective Calcium Release-Activated Calcium Channel Inhibitor: 2,6-Difluoro-N-(2'-methyl-3'-(4-methyl-5-oxo-4,5-dihydro-1,3,4-oxadiazol-2-yl)-[1,1'-biphenyl]-4-yl)benzamide. Structure-Activity Relationship and Preclinical Characterization” (J Med Chem, 2021)
